Data taken from patent US20140080908A1, “COMPOSITIONS AND METHODS FOR IMPROVING OR […]-LIKE SYMPTOMS” (PHYTO TECH CORP., priority 2012, published 2014).

Experiments:
[1] = system: human bone marrow cells; details: 1, 2.5, 5 and 7 sec time points; every time point tested; FIG. 1
[2] = system: C57BL/6J mice; details: 30 mg/kg/day orally for 3 months (90 days); compared to calcium gluconate or vehicle; p<0.05; FIG. 2B
Protocol: In an FST, each mouse is placed in a separate acrylic glass cylinder that is filled with water (23-25° C.) to a level high enough to prevent the mouse from touching the bottom of the cylinder with his paws or tail, yet low enough to prevent the mouse from escaping through the top opening of the cylinder. The mice are thus forced to swim in the cylinders. […] FST is the most widely used as a screen for acute antidepressants, and the duration of immobility is the main parameter by which the effectiveness of an antidepressant treatment is measured.
(§1) Vehicle (saline) was administered to the third group of mice as a control. The animals were then subject to TST and FST.

[3] = system: C57BL/6J mice; details: 30 mg/kg/day orally for 3 months (90 days); compared to calcium gluconate or vehicle; p<0.05; FIG. 2A
Protocol: as §1

[4] = in vivo; cited from earlier work

In the case of `O=C(O)[C@H](O)[C@@H](O)CO` (stereo in doubt) [calcium (2R, 3S)-2,3,4-trihydroxybutyric acid], the “calcium absorption by human bone marrow cells relative to calcium gluconate” value [1] is reported as “approximately three times more”, the “duration of immobility in FST” value [2] is reported as “significantly decreased duration of immobility” and the “duration of immobility in TST” value [3] is reported as “significantly decreased duration of immobility”. For the same compound, the “bioavailability compared to calcium gluconate, calcium acetate and calcium carbonate” value [4] was “higher bioavailability”.
